Results as given in patent publication US8158577B2, “Modulation of cartilage homeostasis by active domains of cell binding extracellular matrix molecules” (priority 2004, dated 2012).

How the values were obtained:
K105 cells = assay: Adhesion of K105 cells to chondroadherin in the presence of synthetic peptide (FIG. 3, 5A-5B, 13); format: cell-based, human; details: 1 hour at 37° C.
Protocol: Human cells (K9) originating from a human chondrosarcoma were a kind gift from Drs. Sven Inerot and Anders Lindahl, The Salgrenska University Hospital Gothenburg, Sweden. The K9 cells were cultured in Dulbeccos Modified Eagle Medium: Nutrient Mixture F12 (DMEM/F12 1:1) with GLUTAMAX I, supplemented with 10% fetal calf serum, 25 μg/ml ascorbic acid, 50 IU of penicillin and 50 μg/ml streptomycin (Life Technologies, Inc.). A different human cells line (K105) originating from a human chondrosarcoma was a kind gift from Dr. Sven Inerot, The Salgrenska University Hospital, Gothenburg, Sweden. The K105 cells were cultured in a mix of 40% Dulbeccos Modified Eagle Medium, 40% Minimum Essential Media (MEM) alpha Medium, 10% Nutrient Mixture F1 supplemented with 100 nM hydrocortisone, 100 ng/ml insulin, 10% fetal calf serum, 25 μg/ml ascorbic acid, 50 IU of penicillin and 50 μg/ml streptomycin (Life Technologies, Inc.). To harvest cells, culture dishes were rinsed three times with Ca^2+/Mg^2+-free PBS and the cells were incubated with 0.5% trypsin and 1 mM EDTA for 5 min. Detached cells were suspended in PBS containing 1 mg/ml trypsin inhibitor (Sigma) and then washed in PBS. To remove membrane-bound collagens the cells were treated with collagenase 100 U/ml (CLSPA; Worthington Biochemical Corp., Lakewood, N.J.) in PBS, 30 min. 37° C. and then washed in PBS.
Tissue culture 48-wells dishes (Nunclon, Nunc, Denmark) were coated overnight with 5 μg/ml chondroadherin in 4M Guanidine-HCl, 50 mM sodium acetate, pH 5.8, or for native protein in PBS. Alternatively coating was with 5 μg/ml collagen type II in PBS followed by after-coating with 0.5% BSA in PBS for 3 hours. Collagen type II was isolated from bovine nasal cartilage by pepsin digestion (11). Bacterially expressed chondroadherin was isolated as described above. Recombinant chondroadherin expressed in EBNA cell was cloned and purified as described elsewhere (8).
To test cell binding, the chondrosarcoma cells or bovine chondrocytes were suspended in PBS containing 0.1% BSA, 25 U/ml collagenase and added to the wells (50,000/well), in the absence or presence of various peptide pools or the synthetic peptides (200, 100, 50, 25, 12.5 μg/ml). Non-adherent cells were removed after 1 hour and adhesion was determined by measuring lysosomal N-acetylglucosaminidase (12). Adhesion and spreading was visualized by light microscopy. In the time studies, k105 cells were allowed to adhere for 30 minutes, unbound cells were removed and medium without serum supplemented with or without peptides (250 μg/ml), β1 integrin antibody (clone P4C10, Gibco BRL), EDTA (5 mM) was added. Cell morphology was visualized by light microscopy after 1, 3 and 20 hours.
Study design: Tissue culture dishes (48-wells) were coated with 5 μg/ml chondroadherin expressed in E. coli and blocked for non-specific binding with BSA. […] were suspended in PBS containing 0.1% BSA, 25 U/ml collagenase and added to the wells (50,000/well) in the presence of synthetic peptide to be tested and allowed to adhere for 1 hour at 37° C. Nonadherent cells were removed by washing, and adhesion was determined by analyzing lysosomal hexosaminidase.
A 12-mer peptide (1947.01) plus an N-terminal cysteine (CQLRGLRRWLEAK) (SEQ ID NO. 3) representing the candidate sequence identified by mass spectrometry were synthesized and its ability to inhibit cell adhesion was determined. Tissue culture dishes were coated with 5 μg/ml chondroadherin expressed in E. coli and blocked for non-specific binding with BSA. The cells were suspended in PBS containing 0.1% BSA, 25 U/ml collagenase and added to the wells (50,000/well) in the presence of synthetic peptide (200, 100, 50, 25, 12.5 μg/ml) and allowed to adhere for 1 hour at 37° C. Nonadherent cells were removed by washing, and adhesion was determined by analyzing lysosomal hexosaminidase. […]

[1] = tested on: IL-1 stimulated synoviocytes; assay: IL-6 release in IL-1 stimulated synoviocytes (ELISA); format: cell-based, rat; details: 50-400 μM peptide, IL-1a 50 ng/ml, 72 hour
Protocol: The following experiments measure the IL-6 release in IL-1 stimulated synoviocytes.
Study design: From rats with antigen induced arthritis, the hyperproliferative synovium, pannus, was taken from the inflamed knee day four after disease onset. The pannus tissue was cut to small pieces in PBS with PEST (100 IU penicillin, 100 μg/ml streptomycin) and Fungizone (2.5 μg/ml)(all from InVitrogen, Sweden), before incubation in collagenase (400 U/ml, Worthington, USA) for 3 hours at 37° C., 5% CO2. Cells were centrifugated (8 min., room temperature, 1100 rpm.) and suspended in RPMI 1640 supplemented with 10% FCS (InVitrogen, Sweden), PEST and Fungizone and seeded in a 25 cm^2 flask at 37° C., 5% CO2. The following day, cells were rinsed once with medium and further incubated. When confluent, cells were trypsinated for 1 min (0.25% Trypsin with EDTA, InVitrogen, Sweden) counted and seeded in 96 well plates, 10000 cells/well/200 μl.
After 24 hours, the medium was changed and the cells were stimulated with human recombinant IL-1a, 50 ng/ml (Roche, Sweden). The peptide to be investigated was tested in triplets in the concentration interval 50-400 μM. After 72 hour incubation at 37° C., 5% CO2, the medium was collected for measurement of NO (Griess reaction) and IL-6 was analyzed by an ELISA, according to the manufacturer's instructions (BD Biosciences, USA).

[2] = tested on: m-BSA antigen induced monoarthritis in rat; assay: In vivo antigen induced arthritis, knee-joint swelling; details: intra-articular, twice daily
Protocol: The following model experiment measure the effect of the investigated compound on knee-joint swelling using antigen induced arthritis.
The effect of locally administered test compound, 400 mM given twice daily, on the development of arthritis in m-BSA antigen induced monoarthritis in rat was evaluated. Animals treated with saline or Methotrexate (in clinically relevant dose) were used as controls.
Study design: Female Dark Agouti rats, weighing approximately 150 g (B&K breeding center, Denmark) were used. The animals were sensitised intradermally at the tail root with 1 mg mBSA (Sigma A-1009) dissolved in […] and emulsified in […] complete adjuvant (Sigma F 5881). Ten days later the rats were shaved (left knee) and challenged with an intraarticular (i.a) injection of […]. Test compounds were administered intra-articular (left knee) in […] four hours before challenge and thereafter twice daily. The development of arthritis (knee diameters) was registered with an odimeter/calliper. The procedures were carried out under a brief Enflurane anaesthesia. The animals were sacrificed at day 4 after challenge/first treatment.

[3] = tested on: IL-1 stimulated cartilage; assay: NO release in IL-1 stimulated cartilage explants (Griess reaction); format: cell-based, bovine; details: 400 uM peptide, IL-1a 10 ng/ml
Protocol: The following experiments measure the effect of a peptide on NO release in IL-1 stimulated cartilage.
Study design: A skinned bovine nose (from cows 18-24 months old) was collected at Hörby slaughter house (Team Ugglarp, Sweden). The septum inside the nose was cut out and the mucosa and the perichondrium was removed before the cartilage was placed in PBS with PEST (100 IU penicillin, 100 μg/ml streptomycin) and 2.5 μg/ml Fungizone (all from Invitrogen, Sweden) for 2 hours at room temperature.
Two mm pieces were punched out of the cartilage. Each piece was placed in a 24-well cell culture plate (Falcon, Sweden) containing 1 ml cell culture medium, HAMs F12 (Invitrogen, Sweden) supplemented with 10 μg/ml BSA, […] (both from Sigma, Sweden), PEST (100 IU penicillin, […]) and 2.5 μg/ml Fungizone. After 24 hours, the medium was changed and the cartilage pieces were stimulated with human recombinant IL-1a, 10 ng/ml (Roche, Sweden). The peptides where tested in triplet at 20 and 400 μM. The cartilage tissue was incubated for another six days, mediums were exchanged every third day. On each occasion the media were collected for measurement of NO (Griess reaction).

H-[CQLRGLRRWLEAKASRPDATC]-OH (H-CQLRGLRRWLEAKASRPDATC-OH; also: cyclised (brackets), bond type not given here) [SEQ ID No. 9]
inhibitory effect on K105 cell adhesion to chondroadherin (Example II, FIG. 13) (K105 cells): inhibitory effect
IL-6-release from IL-1 stimulated synoviocytes [1]: decrease
disease-ameliorating effect compared with methotrexate [2]: in the same magnitude as methotrexate treatment
knee-joint swelling compared with saline treated animals ([2]; 4 days): decreased
NO-release from IL-1 stimulated cartilage explants [3]: decrease
